Laboratory results: article PMC8041284, “Tunable Methacrylamides for Covalent Ligand Directed Release Chemistry” (Journal of the American Chemical Society, 2021)
Like-named read-outs stand apart in the source and are kept apart here.

Biological target: BTK (Homo sapiens, UniProt Q06187)
Test: biochemical
[1] = read-out: BTK inhibition (%), 0.75 uM BTK, […] probe 3l, 15 min preincubation

Chain of BTK (Q06187 402-655 limits assumed): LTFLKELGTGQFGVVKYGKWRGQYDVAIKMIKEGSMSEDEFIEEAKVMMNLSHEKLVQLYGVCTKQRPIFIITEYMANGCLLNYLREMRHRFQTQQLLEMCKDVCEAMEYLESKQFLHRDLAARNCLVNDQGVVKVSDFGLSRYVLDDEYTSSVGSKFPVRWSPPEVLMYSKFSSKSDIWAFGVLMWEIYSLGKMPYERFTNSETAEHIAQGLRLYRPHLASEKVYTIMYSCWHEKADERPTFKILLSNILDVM

SMILES | inhibition at 10 µM [1] [%] | inhibition at 10 µM (read-out: BTK inhibition (%)) [%]
O=C(/C=C/c1ccc(O)c(O)c1)O[C@@H]1C[C@](O)(C(=O)O)C[C@@H](O)[C@H]1O [PCM-0087069] | -10.1 | 
C=C1C(=O)O[C@@H]2C[C@@]3(C)CCCC(=C)[C@@H]3C[C@H]12 [PCM-0214959] | 15.9 | 
O=CN1CC/C(=C\c2ccc3c(c2)OCO3)C1=O [PCM-0215470] | 10.8 | 
Cc1cccc(-c2[nH]c(C(C)(C)C)nc2-c2ccc3c(c2)OCO3)n1 [PCM-0095234] | 9.3 | 
O=C1CC(=O)c2c(Cl)c(Cl)c(Cl)c(Cl)c21 [PCM-0215201] | 79.5 | 
O=C(Nc1cc2cc[nH]c2cn1)c1ccccc1 [PCM-0215233] | 0.8 | 
CC1(C)CCC[C@]2(C)[C@H]3CC(=O)O[C@]3(C)CC[C@@H]12 [PCM-0090818] | -18.7 | 
O=C1C([C@@H]2O[C@H](CO)[C@@H](O)[C@H](O)[C@H]2O)=C(O)/C(=C(O)/C=C/c2ccc(O)cc2)C(=O)C1(O)[C@@H]1O[C@H](CO)[C@@H](O)[C@H](O)[C@H]1O (some centres unmarked) [PCM-0216360] |  | 23.9
CO[C@]1(CC[C@@H](C)CO[C@@H]2O[C@H](CO)[C@@H](O)[C@H](O)[C@H]2O)O[C@H]2C[C@H]3[C@@H]4CC=C5C[C@@H](O[C@@H]6O[C@H](CO)[C@@H](O[C@@H]7O[C@@H](C)[C@H](O)[C@@H](O)[C@H]7O)[C@H](O)[C@H]6O[C@@H]6O[C@@H](C)[C@H](O)[C@@H](O)[C@H]6O)CC[C@]5(C)[C@H]4CC[C@]3(C)[C@H]2[C@@H]1C [PCM-0216533] | -6.2 | 
C[C@@H]1C(=O)O[C@H]2C[C@@]34[C@H]5C[C@@H](C(C)(C)C)[C@]36[C@@H](OC(=O)[C@@H]6O)O[C@@]4(C(=O)O5)[C@]21O [PCM-0089814] | -7.8 | 
CN1c2cc(O)c(N=NC(N)=O)cc2CC1S(=O)(=O)O (centres unmarked) [PCM-0095446] | -10.9 | 
CCCNS(=O)(=O)Nc1ncnc(OCCOc2ncc(Br)cn2)c1-c1ccc(Br)cc1 [PCM-0095633] | 10 | 
COc1cc2c(cc1O)C[C@H]1c3c(cc(O)c(OC)c3-2)CCN1C [PCM-0216351] | 6.9 | 
Cc1csc(-c2nnc(Nc3ccc(Oc4ncccc4-c4ccnc(N)n4)cc3)c3ccccc23)c1 [PCM-0095438] | 97.9 | 
O=C(/C=C/C=C/c1ccc2c(c1)OCO2)N1CCCCC1 [PCM-0006645] | -14 | 
CC1(O)CC(c2nc(-c3ccc4ccc(-c5ccccc5)nc4c3)c3c(N)nccn23)C1 (centres unmarked) [PCM-0214568] | 33.1 | 
CCCc1cc(C(N)=S)ccn1 [PCM-0086237] | -11.7 | 
C=CC(=O)N1CCN(C(=O)CNc2cc(I)c(Cl)cc2O)CC1 [PCM-0215367] | 84.9 | 
COC(=O)C1=C(C)NC(C)=C(C(=O)O[C@@H]2CCCN(Cc3ccccc3)C2)[C@@H]1c1cccc([N+](=O)[O-])c1 [PCM-0214706] | 80.9 | 
CN1[C@@H]2CCC[C@H]1CC(NC(=O)c1nn(C)c3ccccc13)C2 (some centres unmarked) [PCM-0064932] | 10.2 | 
O=C1c2c(O)cc(O)cc2O[C@H](c2cc(O)c(O)c(O)c2)[C@H]1O [PCM-0094847] | -9 | 
CC1(C)CC[C@]2(C)CC[C@]3(C)C(=CC[C@@H]4[C@@]5(C)CC[C@@H](O)[C@](C)(C(=O)O)[C@@H]5CC[C@]43C)[C@@H]2C1 [PCM-0216570] | -6.9 | 
C[C@@H]1CC[C@@]2(OC1)O[C@H]1C[C@H]3[C@@H]4CC=C5C[C@@H](O[C@@H]6O[C@H](CO)[C@@H](O)[C@H](O)[C@H]6O[C@@H]6O[C@@H](C)[C@H](O)[C@@H](O)[C@H]6O)CC[C@]5(C)[C@H]4CC[C@]3(C)[C@@]1(O)[C@@H]2C [PCM-0216535] | 5.4 | 
O=C(/C=C/c1ccc(O)cc1)C1=C(O)[C@](O)([C@@H]2O[C@H](CO)[C@@H](O)[C@H](O)[C@H]2O)C(O)=C(/C=C2/C(=O)C(C(=O)/C=C/c3ccc(O)cc3)=C(O)[C@@](O)([C@@H]3O[C@H](CO)[C@@H](O)[C@H](O)[C@H]3O)C2=O)C1=O [PCM-0215966] | -1.5 | 

SMILES | inhibition at 10 µM [1] [%] | inhibition at 10 µM (read-out: BTK inhibition (%)) [%]
CC(C)NC[C@H](O)COc1ccc(CCOCC2CC2)cc1 [PCM-0214769] | 0.8 | 
C=C[C@H]1CN2CC[C@H]1C[C@@H]2[C@@H](O)c1ccnc2ccccc12 [PCM-0214935] | -17.1 | 
COc1ccccc1-c1cc(Nc2cccc(CS(N)(=O)=O)c2)ncn1 [PCM-0095804] | 2.8 | 
C[C@]12C=CC(=O)C=C1CC[C@@H]1[C@@H]2[C@@H](O)C[C@@]2(C)[C@H]1CC[C@]2(O)C(=O)CO [PCM-0085835] | -7 | 
CCCNCC(O)COc1ccccc1C(=O)CCc1ccccc1 (centres unmarked) [PCM-0064846] | 2.3 | 
c1ccc2c(CCNc3ccc(Nc4ccncc4)cc3)c[nH]c2c1 [PCM-0095026] | 26.9 | 
CCO[C@@H]1OC(=O)C[C@@H]1NC(=O)[C@@H]1CCCN1C(=O)[C@@H](NC(=O)c1ccc(N)c(Cl)c1)C(C)(C)C [PCM-0214671] | -8.6 | 
CCc1ccc(C(=O)C(C)CN2CCCCC2)cc1 (centres unmarked) [PCM-0215109] | -24.1 | 
CN(CCO)CC(O)Cn1cnc2c1c(=O)n(C)c(=O)n2C (centres unmarked) [PCM-0215123] | 9.3 | 
O=C(O)[C@H]1CSC(c2nc3ccc(O)cc3s2)=N1 [PCM-0215581] | -16.2 | 
Cc1cc(C(=O)CN2CCCC2)c(C)n1-c1ccc(F)cc1 [PCM-0215202] |  | 5.4
COc1cc(N)c(Cl)cc1C(=O)N[C@H]1CCN(CCCOc2ccc(F)cc2)C[C@H]1OC [PCM-0086006] | 13.2 | 
Cc1cnc(C(=O)O)c[n+]1[O-] [PCM-0086103] | 3.1 | 
O=C(Nc1ccccc1)N1CCN(c2nc(-c3ccccc3)ns2)CC1 [PCM-0010620] | -3.9 | 
Cc1nn(C)c2nc(NNC(=O)Nc3cc(Cl)nc(Cl)c3)cc(C(C)C)c12 [PCM-0215784] | 54.8 | 
S=C(NCc1ccc2c(c1)OCO2)N1CCN(c2ncnc3c2oc2ccccc23)CC1 [PCM-0094997] | 28.3 | 
O=c1cc(-c2ccc(O)cc2)oc2cccc(O)c12 [PCM-0216294] | 32.4 | 
C[C@@H](O)[C@H]1C(=O)N2C(C(=O)OCOC(=O)C(C)(C)C)=C(SC3CN(C4=NCCS4)C3)[C@H](C)[C@H]12 [PCM-0214665] | 4.7 | 
CCn1cc(C(=O)O)c(=O)c2c(N)c(F)c(NC3CCCCC3)cc21 [PCM-0215625] | 5.4 | 
CC(C)(O)[C@@H]1CC[C@](C)([C@H]2[C@@H](O)C[C@@]3(C)[C@@H]4C[C@H](O)[C@H]5C(C)(C)[C@@H](O)CC[C@@]56C[C@@]46CC[C@]23C)O1 [PCM-0215101] | -6.9 | 
O=C(O)COCCN1CCN([C@H](c2ccccc2)c2ccc(Cl)cc2)CC1 [PCM-0215119] | -6.2 | 
CCOC(=O)NCCCC(=O)NCCc1ccccc1 [PCM-0215356] | -17 | 
COc1ccc(S(=O)(=O)Nc2cc(-c3c(O)ccc4ccccc34)c(O)c3ccccc23)cc1 [PCM-0215905] | 86.5 | 
N#C/C(=C(\O)c1ccc(Cl)cc1Cl)c1nc2ccccc2c(=O)[nH]1 [PCM-0215733] | -6.9 | 

SMILES | inhibition at 10 µM [1] [%] | inhibition at 10 µM (read-out: BTK inhibition (%)) [%]
CS(=O)(=O)c1ccc(-c2cnc(N)c(C(=O)Nc3ccccc3)n2)cc1 [PCM-0095599] | 10.3 | 
Cc1ccc(C(=O)Cn2c3c(sc2=N)CCCC3)cc1 [PCM-0095433] | -11.7 | 
CN(C)CCCC1(c2ccc(F)cc2)OCc2cc(C#N)ccc21 (centres unmarked) [PCM-0064474] | -14.8 | 
OC[C@H]1O[C@@H](c2ccc(F)c(Cc3cc4ccccc4s3)c2)[C@H](O)[C@@H](O)[C@@H]1O [PCM-0215870] | 1.5 | 
OC[C@H]1O[C@@H](Oc2ccc(O)cc2)[C@H](O)[C@@H](O)[C@@H]1O [PCM-0086306] | -6.2 | 
NS(=O)(=O)NCCNc1nonc1C(=Nc1ccc(F)c(Br)c1)NO [PCM-0215507] | -3.1 | 
CC(=O)NC(CC(C)C)C(=O)O (centres unmarked) [PCM-0214817] | 1.6 | 
COc1cc(/C=C/C(=O)CC(=O)/C=C/c2ccc(O)cc2)ccc1O [PCM-0216521] | 110 | 
CC(C)=CC(=O)O[C@H]1Cc2cc3ccc(=O)oc3cc2OC1(C)C [PCM-0216507] | 16.2 | 
CC(C)=CCC[C@](C)(O[C@@H]1O[C@H](CO)[C@@H](O)[C@H](O)[C@H]1O)[C@H]1CC[C@]2(C)[C@@H]1[C@H](O)C[C@@H]1[C@@]3(C)CC[C@H](O)C(C)(C)[C@@H]3[C@@H](O)C[C@]12C [PCM-0216532] | -11.6 | 
Nc1ccc(S(=O)(=O)Nc2ccccn2)cc1 [PCM-0086480] | -13.6 | 
Cc1cc(/C=C2/SC(=S)NC2=O)c(C)n1-c1cccnc1 [PCM-0215351] | 10.8 | 
CC(C)c1cccc(O)c(=O)c1 [PCM-0215059] | 3.9 | 
CC(C)(O/N=C(\C(=O)N[C@@H]1C(=O)N2C(C(=O)[O-])=C(C[n+]3ccccc3)CS[C@H]12)c1csc(N)n1)C(=O)O [PCM-0215253] | 6.8 | 
CC(=O)O[C@]1(C(C)=O)CC[C@H]2[C@@H]3CCC4=CC(=O)CCC4=C3[C@@H](c3ccc(N(C)C)cc3)C[C@@]21C [PCM-0095563] | 38.9 | 
CC1(C)S[C@@H]2[C@H](NC(=O)[C@H](N)c3ccccc3)C(=O)N2[C@H]1C(=O)O [PCM-0214636] | -1.6 | 
CCCNC(=O)Nc1ccc(Oc2ncnc3cc(OC)c(OC)cc23)cc1Cl [PCM-0095113] | -11 | 
Cc1ccc(C(=O)c2cc(O)c(O)c([N+](=O)[O-])c2)cc1 [PCM-0095576] | 38.1 | 
C[C@H](CCC(=O)O)[C@H]1CC[C@H]2[C@@H]3CC[C@@H]4C[C@H](O)CC[C@]4(C)[C@H]3CC[C@]12C [PCM-0214742] | -8.6 | 
C/C1=C\CC[C@]23O[C@H]2[C@@H](OC3=O)c2c(C)coc2C1 [PCM-0216481] | -16.2 | 
C[C@](O)(COc1ccc(C#N)cc1)C(=O)Nc1ccc(C#N)c(C(F)(F)F)c1 [PCM-0095045] |  | -0.8
COc1cccc2c1C(=O)c1c(O)c3c(c(O)c1C2=O)C[C@@](O)(C(=O)CO)C[C@@H]3O[C@H]1C[C@H](N)[C@H](O[C@@H]2CCCCO2)[C@H](C)O1 [PCM-0214749] | 53.7 | 
CC1(C)OC(=O)C=C[C@]2(C)[C@H]3CC[C@@]4(C)[C@H](c5ccoc5)OC(=O)[C@H]5O[C@]54[C@]3(C)C(=O)C[C@@H]12 [PCM-0214973] | 11.7 | 
